{"source": "paper PMC8359193", "about": "“Summary of reference chemicals evaluated by the fish short‐term reproduction assay, OECD TG229, using Japanese Medaka, Oryzias latipes” (Journal of Applied Toxicology, 2021)", "key": {"Japanese medaka": {"tested_on": "Japanese medaka", "conditions": "MMT; ref Flynn et al. (2017); cited from earlier work"}, "[1]": {"tested_on": "Japanese medaka (Oryzias latipes)", "test": "Fish short-term reproduction assay (FSTRA, OECD TG229), 21-day flow-through exposure", "conditions": "for Fertility rate (%) / Mortality (%) Female / Mortality (%) Male / Number of fertilized eggs / Number of total eggs / SSC Female / SSC Male / VTG (ng/mg of liver) Female / VTG (ng/mg of liver) Male: 21 days; for GSI Female / GSI Male / HSI Female / HSI Male / Length Female / Length Male / Weight Female / Weight Male: at completion of exposure", "description": "The experimental studies on the FSTRA for the 16 chemicals were conducted in two laboratories in Japan, the National Institute for Environmental Studies (NIES, Lab‐1) and the Institute of Environmental Ecology, IDEA Consultants Inc. (Lab‐2), in accordance with OECD TG229 (OECD, [2012a]) (Table 1).\nThe NIES‐R strain of Japanese medaka (O. latipes), one of the orange‐red varieties, was used in all the 16 chemical studies. For the studies, healthy and mature male and female medakas at 16 ± 2 weeks old were selected from a single‐stock population, which were bred within the test facilities. The test fish were maintained in conditions similar to the assay for at least 7 days, and spawning status was checked during the acclimation period. On the day the chemical exposure commenced, to ensure balanced distribution of test fish between the treatment groups for the reproductive status of the fish, the replicate vessels (fish tanks), with each containing three male and female medaka, were distributed to each treatment and control group, for example, by a randomized block design based on the number of fertilized eggs laid in the last 5–7 days during the acclimation, in each assay.\nThe water solubility of the test chemical was also taken into consideration when deciding the highest test concentration. To set the lower concentrations, a spacing factor ranging between two and five was used. All assays included a dilution water control (DWC).\nTest solutions at the selected concentrations were prepared by diluting a stock solution, which was prepared by an adequate method depending on the physicochemical properties of the test chemicals, for example, by simply mixing the test chemical in dilution water by stirring and/or sonicating for an appropriate time or by using a solid–liquid saturator. In the two laboratories, flow‐through exposure systems, in which a series of test solutions at the target concentrations can be continuously prepared and delivered to test vessels at controlled flow rates (Haselman et al., [2016]; Watanabe et al., [2017]), were used for the exposure experiments.\nIn the FSTRA, three mature adult males and females in a test vessel were exposed together to the test chemicals in flow‐through condition for 3 weeks. In all the assays, each treatment group, including the DWC group, contained four replicate tanks. During the exposure period, the fish were fed a sufficient amount of live brine shrimp nauplii (newly hatched Artemia sp.) for daily spawning ad libitum. Fecal material in the tanks was appropriately removed by siphoning after feeding. Water temperature of test solutions was recorded for at least one vessel in each treatment and control group every day and for all vessels at least once a week. Furthermore, dissolved oxygen and pH of test solutions were measured for all test vessels at least once a week. Mortality and abnormal behavior and appearance in the fish exposed to test chemicals were daily observed, and any fish that died were removed from the tank as soon as possible. To assess the reproductive status, all eggs females spawned were collected every day. At the completion of the chemical exposure, surviving fish in each tank were sampled.\nThe eggs females released on the bottom of the tank were collected by siphoning, and the egg clutches still on female abdomen were carefully picked from the body of the females captured using a small net. All the eggs collected were microscopically observed and separately counted for fertilized and unfertilized."}, "[2]": {"conditions": "hepatic VTG, 21-day exposure, measured conc."}}, "note": "Structures can show the parent of a compound that is named as a salt.", "data": [{"compound": "CC/C(=C(\\c1ccccc1)c1ccc(OCCN(C)C)cc1)c1ccccc1", "note": "[TAM, tamoxifen citrate]", "values": [{"measurement": "LOEC on female VTG (reduction)", "setting": "Japanese medaka", "result": 1.3, "unit": "µg/L"}, {"measurement": "time from initiation of treatment to drastic reduction of daily fecundity", "setting": "[1]; both, NIES-R, Japanese medaka (Oryzias latipes), in vivo", "result": "≤ 3", "unit": "days"}, {"measurement": "LOEC for VTG induction in males", "setting": "[1]; [2]", "result": 10.0, "unit": "µg/L"}, {"measurement": "LOEC for decrease of VTG in females", "setting": "[1]; [2]", "result": 10.0, "unit": "µg/L"}, {"measurement": "LOEC on female VTG: times lower than that for RAL", "setting": "[1]; in vivo", "result": 70, "unit": "times"}, {"measurement": "Fertility rate (%)", "setting": "[1]; measured conc. 10.0 μg/L", "result": 94, "unit": "%"}, {"measurement": "Mortality (%) Female", "setting": "[1]; measured conc. 10.0 μg/L", "result": 0, "unit": "%"}, {"measurement": "Mortality (%) Male", "setting": "[1]; measured conc. 10.0 μg/L", "result": 0, "unit": "%"}, {"measurement": "Number of fertilized eggs", "setting": "[1]; measured conc. 10.0 μg/L", "result": 12}, {"measurement": "Number of total eggs", "setting": "[1]; measured conc. 10.0 μg/L", "result": "13 ± 1.1 /female/day"}, {"measurement": "SSC Female", "setting": "[1]; measured conc. 10.0 μg/L", "result": "0 ± 0"}, {"measurement": "SSC Male", "setting": "[1]; measured conc. 10.0 μg/L", "result": "85 ± 11"}, {"measurement": "VTG (ng/mg of liver) Female", "setting": "[1]; measured conc. 10.0 μg/L", "result": "666 ± 96 ng/mg of liver"}, {"measurement": "VTG (ng/mg of liver) Male", "setting": "[1]; measured conc. 10.0 μg/L", "result": "181 ± 30.0 ng/mg of liver"}, {"measurement": "GSI Female", "setting": "[1]; measured conc. 10.0 μg/L", "result": 7.3, "unit": "%"}, {"measurement": "GSI Male", "setting": "[1]; measured conc. 10.0 μg/L", "result": 0.89, "unit": "%"}, {"measurement": "HSI Female", "setting": "[1]; measured conc. 10.0 μg/L", "result": 3.6, "unit": "%"}, {"measurement": "HSI Male", "setting": "[1]; measured conc. 10.0 μg/L", "result": 2.2, "unit": "%"}, {"measurement": "Length Female", "setting": "[1]; measured conc. 10.0 μg/L", "result": 32.3, "unit": "mm"}, {"measurement": "Length Male", "setting": "[1]; measured conc. 10.0 μg/L", "result": 33.6, "unit": "mm"}, {"measurement": "Weight Female", "setting": "[1]; measured conc. 10.0 μg/L", "result": 369, "unit": "mg"}, {"measurement": "Weight Male", "setting": "[1]; measured conc. 10.0 μg/L", "result": 419, "unit": "mg"}, {"measurement": "Fertility rate (%)", "setting": "[1]; measured conc. 83.3 μg/L", "result": 76, "unit": "%"}, {"measurement": "Mortality (%) Female", "setting": "[1]; measured conc. 83.3 μg/L", "result": 8.3, "unit": "%"}, {"measurement": "Mortality (%) Male", "setting": "[1]; measured conc. 83.3 μg/L", "result": 0, "unit": "%"}, {"measurement": "Number of fertilized eggs", "setting": "[1]; measured conc. 83.3 μg/L", "result": 1.6}, {"measurement": "Number of total eggs", "setting": "[1]; measured conc. 83.3 μg/L", "result": "2.2 ± 0.8 /female/day"}, {"measurement": "SSC Female", "setting": "[1]; measured conc. 83.3 μg/L", "result": "0 ± 0"}, {"measurement": "SSC Male", "setting": "[1]; measured conc. 83.3 μg/L", "result": "85 ± 7.0"}, {"measurement": "VTG (ng/mg of liver) Female", "setting": "[1]; measured conc. 83.3 μg/L", "result": "335 ± 138 ng/mg of liver"}, {"measurement": "VTG (ng/mg of liver) Male", "setting": "[1]; measured conc. 83.3 μg/L", "result": "319 ± 126 ng/mg of liver"}, {"measurement": "GSI Female", "setting": "[1]; measured conc. 83.3 μg/L", "result": 11.5, "unit": "%"}, {"measurement": "GSI Male", "setting": "[1]; measured conc. 83.3 μg/L", "result": 0.87, "unit": "%"}, {"measurement": "HSI Female", "setting": "[1]; measured conc. 83.3 μg/L", "result": 4.2, "unit": "%"}, {"measurement": "HSI Male", "setting": "[1]; measured conc. 83.3 μg/L", "result": 2.5, "unit": "%"}, {"measurement": "Length Female", "setting": "[1]; measured conc. 83.3 μg/L", "result": 32.9, "unit": "mm"}, {"measurement": "Length Male", "setting": "[1]; measured conc. 83.3 μg/L", "result": 32.5, "unit": "mm"}, {"measurement": "Weight Female", "setting": "[1]; measured conc. 83.3 μg/L", "result": 418, "unit": "mg"}, {"measurement": "Weight Male", "setting": "[1]; measured conc. 83.3 μg/L", "result": 374, "unit": "mg"}, {"measurement": "effect on fecundity (number of total eggs), in words", "setting": "[1]; within the test concentrations, 21-day exposure", "result": "statistically significant decrease"}]}]}
